Measured values as given in patent US11649477B2, “Assays and reagents for antimicrobial susceptibility testing” (SELUX DIAGNOSTICS, INC., priority 2018, dated 2023).
In brackets after ≈: the same amount, converted by molar mass.

Columns and labels:
[1] = tested on: E. coli; details: E. coli strain tested; values as generally found; cited from earlier work
[2] = tested on: S. aureus; experiment: Rapid AST, vancomycin dilution series read by Eu-cryptate-diamine surface binding (TRF); assay type: cell-based; details: Staphylococcus aureus, CTAB pretreatment, CTAB removed before probe, TRF 330/615 nm, read-out: minimum inhibitory concentration (MIC)
Experimental: S. aureus were prepared by diluting colonies into saline to reach a McFarland value of 0.5, which was verified using a spectrophotometer, diluted, and inoculated into 96-well plates containing cation-adjusted Mueller Hinton broth and doubling dilutions of vancomycin. Plates were incubated at 35° C., shaking at 150 rpm for 3 hours, after which 10 μl of Alamar Blue were added to each well and plates were incubated for 1 additional hour. After this incubation, 100 μl of a 0.03% Cetyltrimethylammonium bromide with 0.1M EDTA solution was added to each well. The plates were placed on a shaker at 450 RPM for 10 minutes, followed by centrifugation at 2500×g for 2.5 minutes. The wells were aspirated and 100 μL PBS with 0.05% Tween-20 (PBST) or 100 μl of a 0.03% Cetyltrimethylammonium bromide with 0.1M EDTA solution was added back into the wells. Ten microliters of Eu-cryptate-diamine (5 ng/well) was added to each well and the plates were shaken for 10 minutes. The plates were then centrifuged, the wells aspirated, and 200 μL 1×PBST were added to each well. These steps were repeated twice. After the final wash, time-resolved fluorescence (TRF) for all wells was read at 330/615 nm.

[3] = tested on: K. pneumoniae; experiment: Anionic ratio (growth in colistin vs MHB, Alamar Blue fluorescence); assay type: cell-based; details: 4 μg/ml colistin, Ex560/Em590
Experimental: (§1) P. mirabilis and K. pneumoniae were prepared by diluting colonies into saline to reach a McFarland value of 0.5, which was verified using a spectrophotometer, diluted, and inoculated into 96-well plates containing cation-adjusted Mueller Hinton broth and doubling dilutions of gentamycin (GEN) and ciproflaxin (CIP). Plates were incubated at 35° C., shaking at 150 rpm for 3 hours, after which 10 μl of Alamar Blue were added to each well and plates were incubated for 1 additional hour. After this incubation, Alamar Blue signal was read as the fluorescent signal Ex560/Em590. […] After the final wash, time-resolved fluorescence (TRF) for all wells was read at 330/615 nm.
(§2) The anionic ratios were calculated from the background subtracted fluorescent signal (Ex560/Em590) of bacteria grown in 4 μg/ml colistin divided by the background subtracted fluorescent signal of bacteria grown in MHB. […]

[4] = tested on: P. mirabilis; experiment: as above; assay type: cell-based; details: 4 μg/ml colistin, Ex560/Em590
Experimental: as §1, §2

Compound: CC[C@H]1OC(=O)[C@H](C)[C@@H](O[C@H]2C[C@@](C)(OC)[C@@H](O)[C@H](C)O2)[C@H](C)[C@@H](O[C@@H]2O[C@H](C)C[C@H](N(C)C)[C@H]2O)[C@](C)(O)C[C@@H](C)CN(C)[C@H](C)[C@@H](O)[C@]1(C)O [ATM, azithromycin]
- MIC values [1]: less than or equal to 0.25 μg/ml

Compound: CN[C@H](CC(C)C)C(=O)N[C@H]1C(=O)N[C@@H](CC(N)=O)C(=O)N[C@H]2C(=O)N[C@H]3C(=O)N[C@H](C(=O)N[C@H](C(=O)O)c4cc(O)cc(O)c4-c4cc3ccc4O)[C@H](O)c3ccc(c(Cl)c3)Oc3cc2cc(c3O[C@@H]2O[C@H](CO)[C@@H](O)[C@H](O)[C@H]2O[C@H]2C[C@](C)(N)[C@H](O)[C@H](C)O2)Oc2ccc(cc2Cl)[C@H]1O [VAN, vancomycin]
- MIC [2]: 2 µg/mL (≈ 1.38 µM)

Compound: colistin
- anionic ratio (background subtracted fluorescent signal in colistin divided by signal in MHB) [3]: −0.08
- anionic ratio (background subtracted fluorescent signal in colistin divided by signal in MHB) [4]: 0.96
